Tests used:
[1] = Biodistribution in normal mice; assay type: in vivo, ddY mice; conditions: for Blood / Heart / Intestine / Kidney / Liver / Lung / Muscle / Pancreas / Spleen / Stomach / Thyroid gland: normal mice, i.v.
Procedure: A saline solution (5% ethanol, v/v) of [^125I]TAP1 (0.035 MBq) was injected intravenously into the tail vein of ddY mice (males, 5 weeks old). The mice were sacrificed at various post-injection time points, and the organs of interest were removed. The organ weights were determined, and the radioactivity in the organs was measured with a well-type γ-counter.

[2] = Partition coefficient, 1-octanol/phosphate buffer pH 7.4; assay type: physicochemical; conditions: 1-octanol/phosphate buffer (PBS(-))
Procedure: Experimental determination of the [^125I]TAP1 partition coefficient was performed with 1-octanol and phosphate buffer at pH 7.4. The two phases were pre-saturated, and a mixture solution of 3.0 ml 1-octanol and 3.0 ml PBS (-) was added to a tube containing 0.02 ml [^125I]TAP1 in PBS (-) (0.024 MBq, 5% ethanol, v/v). The test tube was vortexed and centrifuged (1,000×g, 5 min). Aliquots from the 1-octanol and buffer phases (0.5 ml) were counted with a well-type γ-counter. This procedure was repeated three times. The partition coefficient was calculated from the ratio of radioactivity in the organic and aqueous layers.

[3] = Serum protein binding by rapid equilibrium dialysis; assay type: in vitro ADME; conditions: mouse plasma, 37 °C, 4 hr
Procedure: The serum protein binding ratio of [^125I]TAP1 was measured using rapid equilibrium dialysis (RED) devices (Thermo Fisher Scientific K.K.) following the manufacturer's procedures. Briefly, [^125I]TAP1 (0.02 MBq, 0.02 ml) and mouse plasma (0.3 ml) were mixed and placed to the sample chamber and 0.5 ml PBS (-) was placed in the RED device buffer chamber. After incubation at 37 °C for 4 hr, 0.05 ml of the samples were obtained from each chamber. The binding ratios were calculated as: (sample chamber radioactivity)-(buffer chamber radioactivity)/(sample chamber radioactivity) x 100 (%).

[4] = In vitro stability in saline and plasma (RP-HPLC); assay type: in vitro ADME, ddY mice; conditions: 2 hr, 37 °C
Procedure: The in vitro stability of [^125I]TAP1 in plasma was measured using plasma samples taken from ddY mice (males, 7 weeks old). [^125I]TAP1 (0.07 MBq, 0.01 ml) was incubated with 0.1 ml plasma at 37 °C for 2 hr. After addition of 0.2 ml methanol and vortexing, the mixture was centrifuged (4,160×g, 10 min). The supernatant was filtered with a low protein binding hydrophilic PTFE membrane (Millex-LH MILLIPORE), and the filtrate was analyzed by RP-HPLC using a Cosmosil C18 column with an isocratic solvent of H2O (0.1% TFA, v/v)/acetonitrile (0.1% TFA, v/v) (37/63) at a flow rate of 1.5 ml/min.

FABP4 = molecular target: T1, FABP4 (Homo sapiens, UniProt P15090); assay: Saturation binding assay, Scatchard analysis; conditions: immobilized FABP4
T1 construct: purchased Cayman Chemical Company
Procedure: For the saturation assay, a mixture solution of [^125I]TAP1 (0.3–9.5 MBq) was prepared by mixing nonradioactive TAP1 (0.0125–0.4 µM) in interaction buffer (2.5% ethanol and 5% DMSO, v/v). Nonspecific binding was defined in the presence of 0.09 mg/ml [^125I]TAP1 including nonradioactive TAP1. After FABP4 immobilization as described above, 0.4 ml interaction buffer and 0.05 ml mixture solution were added, and the mixture was incubated at room temperature for 2 hr. After incubation, the supernatants were removed and the beads were washed with interaction buffer (5% ethanol, v/v). The radioactivity of beads in the tubes was then measured with a well-type γ-counter. The dissociation constant (K d) of [^125I]TAP1 for FABP4 was determined by Scatchard analysis using GraphPad Prism.

[5] = Metabolite analysis in liver and kidneys; assay type: in vivo, ddY mice; conditions: 1 hr after i.v. administration, normal mice
Procedure: A saline solution (5% ethanol, v/v) of [^125I]TAP1 (1.20 MBq) was injected intravenously into the tail vein of ddY mice (males, 5 weeks old), and animals were sacrificed 1 hr post-injection. The liver and kidneys were removed and homogenized in 1 ml ice-cold 30 mM Tris-HCl buffer (pH = 8.5) containing 5 mM magnesium acetate at 4 °C. After addition of 3 ml cold methanol and vortexing, tissue samples were centrifuged (10,000×g, 5 min). The supernatants were filtered, and the filtrate was analyzed by RP-HPLC as described above.

T1 sequence (P15090 whole entry): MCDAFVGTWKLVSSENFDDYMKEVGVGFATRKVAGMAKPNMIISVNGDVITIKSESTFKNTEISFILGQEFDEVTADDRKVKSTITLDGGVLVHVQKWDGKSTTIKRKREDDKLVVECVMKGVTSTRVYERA

SMILES: O=c1cc(COc2cccc([125I])c2)[nH]c2nc(-c3ccccc3)nn12 [[^125I]TAP1]
- stability against deiodination in vivo ([1]; low radioactivity in stomach and thyroid gland): stable against deiodination
- Blood ([1]; 5 min): 3.25±0.20 % injected dose per gram
- Heart ([1]; 5 min): 1.59±0.54 % injected dose per gram
- Intestine ([1]; 5 min): 2.21±1.43 % injected dose per gram
- Kidney ([1]; 5 min): 15.30±9.93 % injected dose per gram
- Liver ([1]; 5 min): 57.51±4.79 % injected dose per gram
- Lung ([1]; 5 min): 3.12±1.11 % injected dose per gram
- Muscle ([1]; 5 min): 0.73±0.51 % injected dose per gram
- Pancreas ([1]; 5 min): 1.53±0.84 % injected dose per gram
- Spleen ([1]; 5 min): 1.54±0.60 % injected dose per gram
- Stomach ([1]; 5 min): 0.40±0.14 % injected dose per organ
- Thyroid gland ([1]; 5 min): 0.01±0.005 % injected dose per organ
- Blood ([1]; 15 min): 3.91±0.75 % injected dose per gram
- Heart ([1]; 15 min): 1.57±0.51 % injected dose per gram
- Intestine ([1]; 15 min): 2.21±0.72 % injected dose per gram
- Kidney ([1]; 15 min): 32.89±11.78 % injected dose per gram
- Liver ([1]; 15 min): 47.58±2.57 % injected dose per gram
- Lung ([1]; 15 min): 2.88±0.65 % injected dose per gram
- Muscle ([1]; 15 min): 0.83±0.09 % injected dose per gram
- Pancreas ([1]; 15 min): 1.23±0.26 % injected dose per gram
- Spleen ([1]; 15 min): 1.84±0.43 % injected dose per gram
- Stomach ([1]; 15 min): 0.76±0.14 % injected dose per organ
- Thyroid gland ([1]; 15 min): 0.03±0.01 % injected dose per organ
- Blood ([1]; 30 min): 3.45±0.41 % injected dose per gram
- Heart ([1]; 30 min): 1.39±0.25 % injected dose per gram
- Intestine ([1]; 30 min): 3.83±0.07 % injected dose per gram
- Kidney ([1]; 30 min): 45.34±3.34 % injected dose per gram
- Liver ([1]; 30 min): 50.91±7.27 % injected dose per gram
- Lung ([1]; 30 min): 2.76±0.49 % injected dose per gram
- Muscle ([1]; 30 min): 0.67±0.16 % injected dose per gram
- Pancreas ([1]; 30 min): 0.89±0.12 % injected dose per gram
- Spleen ([1]; 30 min): 1.29±0.13 % injected dose per gram
- Stomach ([1]; 30 min): 0.92±0.21 % injected dose per organ
- Thyroid gland ([1]; 30 min): 0.03±0.01 % injected dose per organ
- Blood ([1]; 60 min): 2.02±0.35 % injected dose per gram
- Heart ([1]; 60 min): 0.96±0.32 % injected dose per gram
- Intestine ([1]; 60 min): 5.10±1.43 % injected dose per gram
- Kidney ([1]; 60 min): 45.89±13.85 % injected dose per gram
- Liver ([1]; 60 min): 46.70±4.43 % injected dose per gram
- Lung ([1]; 60 min): 1.93±0.91 % injected dose per gram
- Muscle ([1]; 60 min): 0.64±0.20 % injected dose per gram
- Pancreas ([1]; 60 min): 1.46±0.55 % injected dose per gram
- Spleen ([1]; 60 min): 1.14±0.38 % injected dose per gram
- Stomach ([1]; 60 min): 1.40±0.69 % injected dose per organ
- Thyroid gland ([1]; 60 min): 0.02±0.08 % injected dose per organ
- Blood ([1]; 120 min): 1.72±0.49 % injected dose per gram
- Heart ([1]; 120 min): 1.11±0.23 % injected dose per gram
- Intestine ([1]; 120 min): 10.58±1.93 % injected dose per gram
- Kidney ([1]; 120 min): 50.84±18.75 % injected dose per gram
- Liver ([1]; 120 min): 31.00±1.52 % injected dose per gram
- Lung ([1]; 120 min): 1.46±0.13 % injected dose per gram
- Muscle ([1]; 120 min): 0.71±0.24 % injected dose per gram
- Pancreas ([1]; 120 min): 0.64±0.1 % injected dose per gram
- Spleen ([1]; 120 min): 1.44±1.21 % injected dose per gram
- Stomach ([1]; 120 min): 2.02±0.70 % injected dose per organ
- Thyroid gland ([1]; 120 min): 0.14±0.21 % injected dose per organ
- logP [2]: 2.7 ± 0.1
- percentage bound to serum proteins [3]: more than 99%
- stability in mouse plasma ([4]; mouse plasma): no radioactive degradation products were observed
- stability in saline ([4]; saline): no radioactive degradation products were observed
- Kd (FABP4): 69.1 ± 12.3 nM
- intact form in kidneys [5]: more than 90%
- intact form in liver [5]: more than 90%

— publication PMC3986099, “Development of a Radioiodinated Triazolopyrimidine Probe for Nuclear Medical Imaging of Fatty Acid Binding Protein 4” (PLoS ONE, 2014)
